Test results taken from ChEMBL document CHEMBL5303573, “Mapping human microbiome drug metabolism by gut bacteria and their genes” (Nature, 2019).

Assays:
[1] = The drug is tested on Bacteroides xylanisolvens strain: DSM18836 for biotransformation. The drug concentrations were measured before and after a 12-h incubation by liquid-chromatography-coupled mass spectrometry (LC–MS); details: 2 µM
[2] = The drug is tested on Alistipes indistinctus strain: DSM22520 for biotransformation. The drug concentrations were measured before and after a 12-h incubation by liquid-chromatography-coupled mass spectrometry (LC–MS); details: 2 µM
[3] = The drug is tested on Bacteroides sp. WH2 strain: WH2 for biotransformation. The drug concentrations were measured before and after a 12-h incubation by liquid-chromatography-coupled mass spectrometry (LC–MS); details: bacteroides sp. wh2, 12 h, 2 µM
[4] = The drug is tested on Edwardsiella tarda strain: ATCC23685 for biotransformation. The drug concentrations were measured before and after a 12-h incubation by liquid-chromatography-coupled mass spectrometry (LC–MS); details: 2 µM
[5] = The drug is tested on Blautia hansenii strain: DSM20583 for biotransformation. The drug concentrations were measured before and after a 12-h incubation by liquid-chromatography-coupled mass spectrometry (LC–MS); details: 2 µM
[6] = The drug is tested on Bacteroides coprophilus strain: DSM18228 for biotransformation. The drug concentrations were measured before and after a 12-h incubation by liquid-chromatography-coupled mass spectrometry (LC–MS); details: 2 µM
[7] = bacteroides fragilis, 12 h, 2 µM
Description: The drug is tested on Bacteroides fragilis strain: 3397 (T10) for biotransformation. The drug concentrations were measured before and after a 12-h incubation by liquid-chromatography-coupled mass spectrometry (LC–MS)

[8] = bacteroides thetaiotaomicron, 12 h, 2 µM
Description: The drug is tested on Bacteroides thetaiotaomicron strain: VPI-5482 for biotransformation. The drug concentrations were measured before and after a 12-h incubation by liquid-chromatography-coupled mass spectrometry (LC–MS)

[9] = The drug is tested on Eubacterium ventriosum strain: ATCC27560 for biotransformation. The drug concentrations were measured before and after a 12-h incubation by liquid-chromatography-coupled mass spectrometry (LC–MS); format: ADME; parameters: dose 2 uM, timepoint 0 vs 12 hours; details: 2 µM
[10] = The drug is tested on Bacteroides ovatus strain: ATCC8483 for biotransformation. The drug concentrations were measured before and after a 12-h incubation by liquid-chromatography-coupled mass spectrometry (LC–MS); details: 2 µM
[11] = bacteroides fragilis, 12 h, 2 µM; remark: listed apart in the source
Description: The drug is tested on Bacteroides fragilis strain: DS-208 for biotransformation. The drug concentrations were measured before and after a 12-h incubation by liquid-chromatography-coupled mass spectrometry (LC–MS)

[12] = The drug is tested on Anaerotruncus colihominis strain: DSM17241 for biotransformation. The drug concentrations were measured before and after a 12-h incubation by liquid-chromatography-coupled mass spectrometry (LC–MS); details: 2 µM
[13] = The drug is tested on Collinsella intestinalis strain: DSM13280 for biotransformation. The drug concentrations were measured before and after a 12-h incubation by liquid-chromatography-coupled mass spectrometry (LC–MS); details: 2 µM
[14] = bacteroides thetaiotaomicron, 12 h, 2 µM; remark: listed apart in the source
Description: The drug is tested on Bacteroides thetaiotaomicron strain: 3731 for biotransformation. The drug concentrations were measured before and after a 12-h incubation by liquid-chromatography-coupled mass spectrometry (LC–MS)

[15] = The drug is tested on Blautia luti strain: DSM14534 for biotransformation. The drug concentrations were measured before and after a 12-h incubation by liquid-chromatography-coupled mass spectrometry (LC–MS); format: ADME; parameters: dose 2 uM, timepoint 0 vs 12 hours; details: 2 µM
[16] = The drug is tested on Subdoligranulum variabile strain: DSM15176 for biotransformation. The drug concentrations were measured before and after a 12-h incubation by liquid-chromatography-coupled mass spectrometry (LC–MS); details: 2 µM
[17] = The drug is tested on Bacteroides pectinophilus strain: ATCC43243 for biotransformation. The drug concentrations were measured before and after a 12-h incubation by liquid-chromatography-coupled mass spectrometry (LC–MS); details: 2 µM
[18] = The drug is tested on Dorea formicigenerans strain: ATCC27755 for biotransformation. The drug concentrations were measured before and after a 12-h incubation by liquid-chromatography-coupled mass spectrometry (LC–MS); details: 2 µM
[19] = The drug is tested on Escherichia coli strain: BW25113 for biotransformation. The drug concentrations were measured before and after a 12-h incubation by liquid-chromatography-coupled mass spectrometry (LC–MS); details: 2 µM
[20] = The drug is tested on Clostridium ramosum strain: DSM1402 for biotransformation. The drug concentrations were measured before and after a 12-h incubation by liquid-chromatography-coupled mass spectrometry (LC–MS); details: thomasclavelia ramosa, 2 µM

SMILES	Bacterial Biotransformation [1]	Bacterial Biotransformation [2]	Bacterial Biotransformation [3]	Bacterial Biotransformation [4]	Bacterial Biotransformation [5]	Bacterial Biotransformation [6]	Bacterial Biotransformation [7]	Bacterial Biotransformation [8]	Bacterial Biotransformation [9]	Bacterial Biotransformation [10]	Bacterial Biotransformation [11]	Bacterial Biotransformation [12]	Bacterial Biotransformation [13]	Bacterial Biotransformation [14]	Bacterial Biotransformation [15]	Bacterial Biotransformation [16]	Bacterial Biotransformation [17]	Bacterial Biotransformation [18]	Bacterial Biotransformation [19]	Bacterial Biotransformation [20]
CCCCC1=NC2(CCCC2)C(=O)N1Cc1ccc(-c2ccccc2-c2nnn[nH]2)cc1 [IRBESARTAN]	Compound metabolized	Compound metabolized	Compound metabolized	Compound metabolized	Compound metabolized	Compound NOT metabolized	–	Compound metabolized	Compound NOT metabolized	Compound metabolized	Compound metabolized	Compound metabolized	Compound NOT metabolized	Compound NOT metabolized	Compound NOT metabolized	Compound metabolized	Compound metabolized	Compound metabolized	Compound metabolized	–
Cc1nc(-c2ccc(OCC(C)C)c(C#N)c2)sc1C(=O)O [FEBUXOSTAT]	Compound NOT metabolized	Compound NOT metabolized	Compound NOT metabolized	Compound NOT metabolized	Compound NOT metabolized	–	Compound metabolized	Compound NOT metabolized	Compound NOT metabolized	Compound NOT metabolized	Compound NOT metabolized	Compound NOT metabolized	Compound NOT metabolized	Compound NOT metabolized	Compound NOT metabolized	Compound NOT metabolized	Compound NOT metabolized	Compound NOT metabolized	Compound NOT metabolized	–
O=C1C(CC[S+]([O-])c2ccccc2)C(=O)N(c2ccccc2)N1c1ccccc1 (stereo unspecified) [SULFINPYRAZONE]	Compound metabolized	Compound NOT metabolized	–	Compound NOT metabolized	Compound NOT metabolized	Compound NOT metabolized	Compound NOT metabolized	Compound NOT metabolized	Compound NOT metabolized	Compound NOT metabolized	Compound metabolized	Compound NOT metabolized	Compound NOT metabolized	Compound NOT metabolized	Compound NOT metabolized	Compound NOT metabolized	Compound NOT metabolized	Compound NOT metabolized	Compound NOT metabolized	–
COC1=CC(=O)C[C@@H](C)[C@]12Oc1c(Cl)c(OC)cc(OC)c1C2=O [GRISEOFULVIN]	Compound metabolized	Compound NOT metabolized	Compound NOT metabolized	Compound NOT metabolized	Compound metabolized	–	Compound metabolized	Compound metabolized	Compound NOT metabolized	–	Compound metabolized	Compound NOT metabolized	Compound NOT metabolized	Compound NOT metabolized	Compound NOT metabolized	Compound NOT metabolized	Compound NOT metabolized	Compound NOT metabolized	–	–

Next, values leading:

Bacterial Biotransformation [1]	Bacterial Biotransformation [2]	Bacterial Biotransformation [3]	Bacterial Biotransformation [4]	Bacterial Biotransformation [5]	Bacterial Biotransformation [6]	Bacterial Biotransformation [7]	Bacterial Biotransformation [8]	Bacterial Biotransformation [9]	Bacterial Biotransformation [10]	Bacterial Biotransformation [11]	Bacterial Biotransformation [12]	Bacterial Biotransformation [13]	Bacterial Biotransformation [14]	Bacterial Biotransformation [15]	Bacterial Biotransformation [16]	Bacterial Biotransformation [17]	Bacterial Biotransformation [18]	Bacterial Biotransformation [19]	Bacterial Biotransformation [20]	SMILES
Compound NOT metabolized	Compound NOT metabolized	Compound NOT metabolized	Compound NOT metabolized	Compound NOT metabolized	Compound NOT metabolized	Compound NOT metabolized	Compound NOT metabolized	Compound NOT metabolized	Compound NOT metabolized	Compound NOT metabolized	Compound NOT metabolized	Compound NOT metabolized	Compound NOT metabolized	Compound NOT metabolized	Compound NOT metabolized	Compound NOT metabolized	Compound NOT metabolized	–	–	COc1cc(C(=O)NCc2ccc(OCCN(C)C)cc2)cc(OC)c1OC [TRIMETHOBENZAMIDE]
Compound metabolized	Compound NOT metabolized	Compound NOT metabolized	Compound NOT metabolized	Compound metabolized	Compound metabolized	Compound NOT metabolized	Compound NOT metabolized	Compound NOT metabolized	Compound metabolized	Compound NOT metabolized	Compound NOT metabolized	Compound NOT metabolized	Compound NOT metabolized	Compound NOT metabolized	Compound NOT metabolized	Compound NOT metabolized	Compound NOT metabolized	Compound NOT metabolized	–	CCCc1nn(C)c2c(=O)[nH]c(-c3cc(S(=O)(=O)N4CCN(C)CC4)ccc3OCC)nc12.O=C(O)CC(O)(CC(=O)O)C(=O)O [SILDENAFIL CITRATE]
Compound NOT metabolized	Compound NOT metabolized	Compound NOT metabolized	Compound NOT metabolized	Compound NOT metabolized	Compound metabolized	–	–	Compound NOT metabolized	–	–	Compound NOT metabolized	Compound NOT metabolized	Compound NOT metabolized	Compound NOT metabolized	Compound NOT metabolized	Compound NOT metabolized	Compound NOT metabolized	–	Compound NOT metabolized	CN(C)CCc1c[nH]c2ccc(Cn3cncn3)cc12.O=C(O)c1ccccc1 [RIZATRIPTAN BENZOATE]
–	Compound NOT metabolized	Compound NOT metabolized	Compound NOT metabolized	Compound NOT metabolized	Compound NOT metabolized	Compound NOT metabolized	–	Compound NOT metabolized	Compound NOT metabolized	Compound NOT metabolized	Compound NOT metabolized	Compound NOT metabolized	–	Compound NOT metabolized	Compound NOT metabolized	Compound NOT metabolized	Compound NOT metabolized	Compound NOT metabolized	–	OCCOCCN1CCN(C2=Nc3ccccc3Sc3ccccc32)CC1 [QUETIAPINE]
Compound NOT metabolized	Compound NOT metabolized	Compound NOT metabolized	Compound NOT metabolized	Compound NOT metabolized	Compound NOT metabolized	Compound NOT metabolized	Compound NOT metabolized	Compound NOT metabolized	Compound NOT metabolized	Compound NOT metabolized	Compound NOT metabolized	Compound NOT metabolized	Compound NOT metabolized	Compound NOT metabolized	Compound NOT metabolized	Compound NOT metabolized	Compound NOT metabolized	–	–	COc1ccccc1OCC(O)CN1CCN(CC(=O)Nc2c(C)cccc2C)CC1 (stereo unspecified) [RANOLAZINE]
